Assay [1] relates to H37Rv strain of M. tuberculosis. In words: Alamar Blue Susceptibility Test (MABA). The assay is classed as cell-based. The conditions noted are these: Mycobacterium tuberculosis; H37Rv strain of M. tuberculosis; Alamar Blue; read-out: MABA (TB growth inhibition, colourimetric assay). Background: The colour change of resazurin is a common sign of viable cells or microbes.
In assay [2] the test system is non replicating phase of M. tuberculosis (H37Rv with a plasmid with an acetimidase promoter driving a luciferase gene). The assay can be described thus: microbe, parasite or virus in culture. The assay is classed as cell-based. The conditions noted are these: non replicating M. tuberculosis H37Rv luciferase strain; for MIC: Mycobacterium tuberculosis, read-out: LORA (TB growth inhibition, MIC).

These results are taken from patent US20100317607A1, “USE OF COMPOUNDS FOR PREPARING ANTI-TUBERCULOSIS AGENTS” (INFECTIOUS DISEASE RESEARCH INSTITUTE, priority 2007, published 2010).

The structures appear in SMILES notation. Values after ≈ are worked out from the molar mass of the structure shown. Counter-ions that a name gives are not always drawn. A value given as a limit tells only on which side of the number the result lay.

As for `COC(=O)c1ccc(CNc2nc(N3CCCCC3)nc3ccccc23)cc1` [Compound 93, Methyl 4-((2-(piperidin-1-yl)quinazolin-4-ylamino)methyl)benzoate], the figures for the MIC in assay [1] and in assay [2] were less than 10 µM and 50 to 128 µM (≈ 18.8 to 48.2 µg/mL), respectively.

As for `C[C@@H](Nc1nc(N2CCCCC2)nc2ccccc12)c1ccc(Cl)cc1` [Compound 96, (R)—N-(1-(4-Chlorophenyl)ethyl)-2-(piperidin-1-yl)quinazolin-4-amine hydrochloride], the MIC is less than 10 µM in assay [1] and 10 to 50 µM in assay [2].

Regarding `C[C@@H](Nc1nc(N2CCCCC2)nc2ccccc12)c1ccc(F)cc1` [Compound 98, (R)—N-(1-(4-Fluorophenyl)ethyl)-2-(piperidin-1-yl)quinazolin-4-amine hydrochloride], the values for the MIC in assay [1] and in assay [2] were less than 10 µM and 10 to 50 µM, respectively.

In the case of `C[C@@H](Nc1nc(N2CCCCC2)nc2ccccc12)c1cccc2ccccc12` [Compound 99, (R)—N-(1-(Naphthalen-1-yl)ethyl)-2-(piperidin-1-yl)quinazolin-4-amine hydrochloride], the values for the MIC in assay [1] and in assay [2] were less than 10 µM and 10 to 50 µM, respectively.

Turning to `C[C@@H](Nc1nc(N2CCCCC2)nc2ccccc12)c1ccc2ccccc2c1` [Compound 100, (R)—N-(1-(Naphthalen-2-yl)ethyl)-2-(piperidin-1-yl)quinazolin-4-amine hydrochloride], the values for the MIC in assay [1] and in assay [2] were less than 10 µM and 10 to 50 µM, respectively.

Consider `FC(F)(F)c1ccc(CCNc2nc(N3CCCCC3)nc3ccccc23)cc1` [Compound 105, 2-(Piperidin-1-yl)-N-(4-(trifluoromethyl)phenethyl)quinazolin-4-amine], for which the MIC in assay [1] and in assay [2] was less than 10 µM in each case.

For `Clc1ccc(CNc2nc(N3CCc4ccccc4C3)nc3ccccc23)cc1` [Compound 106, N-(4-Chlorobenzyl)-2-(3,4-dihydroisoquinolin-2(1H)-yl)quinazolin-4-amine hydrochloride], the MIC in assay [1] and in assay [2] was less than 10 µM throughout.

On to `Clc1ccc(CNc2nc(N3CCCCC3)c3ccccc3n2)c(Cl)c1` [Compound 112, N-(2,4-Dichlorobenzyl)-4-(piperidin-1-yl)quinazolin-2-amine hydrochloride], for which the MIC in assay [1] and in assay [2] was less than 10 µM throughout.

On to `FC(F)(F)c1ccc(CNc2nc(N3CCc4ccccc4C3)nc3ccccc23)cc1` [Compound 114, 2-(3,4-Dihydroisoquinolin-2(1H)-yl)-N-(4-(trifluoromethyl)benzyl)quinazolin-4-amine hydrochloride], for which the MIC in assay [1] and in assay [2] was less than 10 µM throughout.

As to `Fc1ccc(CNc2nc(N3CCCCC3)nc3ccccc23)c(F)c1` [Compound 115, N-(2,4-Difluorobenzyl)-2-(piperidin-1-yl)quinazolin-4-amine hydrochloride], the MIC in assay [1] was less than 10 µM; in assay [2], 10 to 50 µM.

On to `Fc1ccc(CNc2nc(N3CCCCC3)nc3ccccc23)cc1F` [Compound 116, N-(3,4-Difluorobenzyl)-2-(piperidin-1-yl)quinazolin-4-amine hydrochloride], for which the values for the MIC in assay [1] and in assay [2] were less than 10 µM and 10 to 50 µM, respectively.

For the compound `C[C@@H](Nc1nc(N2CCCCC2)nc2ccccc12)c1ccc(C(F)(F)F)cc1` [Compound 117, (R)-2-(Piperidin-1-yl)-N-(1-(4-(trifluoromethyl)phenyl)ethyl)quinazolin-4-amine], the MIC in assay [1] and in assay [2] was less than 10 µM in each case.

Take `CC(C)(Nc1nc(N2CCCCC2)nc2ccccc12)c1ccc(F)cc1` [Compound 120, N-(2-(4-Fluorophenyl)propan-2-yl)-2-(piperidin-1-yl)quinazolin-4-amine]: the MIC is less than 10 µM in assay [1] and 10 to 50 µM (≈ 3.64 to 18.2 µg/mL) in assay [2].

Turning to `CCC(CC)(Nc1nc(N2CCCC2)nc2ccccc12)c1ccccc1` [Compound 124, N-(3-Phenylpentan-3-yl)-2-(pyrrolidin-1-yl)quinazolin-4-amine], the results for the MIC in assay [1] and in assay [2] were less than 10 µM and 10 to 50 µM (≈ 3.61 to 18 µg/mL), respectively.

Turning to `Clc1ccc(CNc2nc(NCc3ccccc3)c3ccccc3n2)cc1` [Compound 127, N^4-Benzyl-N^2-(4-chlorobenzyl)quinazoline-2,4-diamine hydrochloride], the MIC in assay [1] and in assay [2] was less than 10 µM throughout.

In the case of `FC(F)(F)c1ccc(CNc2nc(NCc3ccccc3)c3ccccc3n2)cc1` [Compound 128, N^4-Benzyl-N^2-(4-(trifluoromethyl)benzyl)quinazoline-2,4-diamine hydrochloride], the MIC in assay [1] and in assay [2] was less than 10 µM each time.

On to `c1ccc(CNc2nc(N3Cc4ccccc4C3)nc3ccccc23)cc1` [Compound 130, N-Benzyl-2-(isoindolin-2-yl)quinazolin-4-amine], for which, in assay [1], the MIC was less than 10 µM. Further, the “LORA (TB growth inhibition, MIC)” value in assay [2] is reported as “−”.

For `c1ccc(CNc2nc(NC3Cc4ccccc4C3)nc3ccccc23)cc1` [Compound 131, N^4-Benzyl-N^2-(2,3-dihydro-1H-inden-2-yl)quinazoline-2,4-diamine], the MIC in assay [1] and in assay [2] was less than 10 µM in each case.

Regarding `c1ccc(CNc2nc(N3CCC(c4ccccc4)CC3)nc3ccccc23)cc1` [Compound 132, N-Benzyl-2-(4-phenylpiperidin-1-yl)quinazolin-4-amine hydrochloride], the MIC in assay [1] and in assay [2] was less than 10 µM throughout.

In the case of `c1ccc(CNc2nc(N3CCN(c4ccccc4)CC3)nc3ccccc23)cc1` [Compound 133, N-Benzyl-2-(4-phenylpiperazin-1-yl)quinazolin-4-amine hydrochloride], the MIC is less than 10 µM in assay [1] and 10 to 50 µM in assay [2].

Take `Clc1ccc(N2CCN(c3nc(NCc4ccccc4)c4ccccc4n3)CC2)cc1` [Compound 134, N-Benzyl-2-(4-(4-chlorophenyl)piperazin-1-yl)quinazolin-4-amine hydrochloride]: the MIC is less than 10 µM in assay [1] and 10 to 50 µM in assay [2].

Consider `FC(F)(F)c1ccc(N2CCN(c3nc(NCc4ccccc4)c4ccccc4n3)CC2)cc1` [Compound 135, N-Benzyl-2-(4-(4-(trifluoromethyl)phenyl)piperazin-1-yl)quinazolin-4-amine hydrochloride], for which the figures for the MIC in assay [1] and in assay [2] were less than 10 µM and 10 to 50 µM, respectively.

As to `COc1ccc(N2CCN(c3nc(NCc4ccccc4)c4ccccc4n3)CC2)cc1` [Compound 136, N-Benzyl-2-(4-(4-methoxyphenyl)piperazin-1-yl)quinazolin-4-amine hydrochloride], the results for the MIC in assay [1] and in assay [2] were less than 10 µM and 10 to 50 µM, respectively.
